Results published in patent US8822519B2, “Compound with agitation effect on peroxisome proliferator-activated receptor process for its preparation and use thereof” (Zhejiang Hisun Pharmaceutical Co., Ltd., priority 2008, dated 2014).

Tests used:
[1] = tested on: high fat fodder obese C57BL/6J mice; test: High fat fodder obese mice: body weight and food intake; assay type: in vivo
Excerpt: (§1) 3 week-old male C57BL/6J mice were chosen as experiment animals, 15 of which were randomly selected to feed with a standard fodder, and the remains were allowed to feed with a high fat fodder, with each of the mice being marked by ear-cutting. The body weights and fodder intake of the mice were weighed every week. […] After the administration of the inventive compounds for four weeks, the effects of the medicaments on the levels of blood lipid and blood glucose, body weight, and fodder intake in the animals were observed, while a glucose tolerance test was performed to investigate the effects of the medicaments on the glucose tolerance in the animals.

[2] = tested on: high fat fodder obese C57BL/6J mice; test: Oral glucose tolerance test in obese mice; assay type: in vivo; settings: FIG. 2, in words
Protocol: The abscissa represents blood-sampling time points, 0 min, 30 min, 60 min, 120 min after orally given with glucose; the ordinate represents the corresponding blood glucose level (mmol/L).
as §1

PPARδ = target: T1, PPARδ (Homo sapiens, UniProt Q03181); test: In vitro screening of nuclear receptor agonist: luciferase reporter gene assay in HepG2 cells; assay type: cell-based; settings: RXR/PPARδ luciferase reporter gene, 24 h treatment
T1 construct: expressed in transfected cells; host or cells: HepG2 (human hepatocarcinoma, ATCC)
T1 sequence (Q03181 1-441): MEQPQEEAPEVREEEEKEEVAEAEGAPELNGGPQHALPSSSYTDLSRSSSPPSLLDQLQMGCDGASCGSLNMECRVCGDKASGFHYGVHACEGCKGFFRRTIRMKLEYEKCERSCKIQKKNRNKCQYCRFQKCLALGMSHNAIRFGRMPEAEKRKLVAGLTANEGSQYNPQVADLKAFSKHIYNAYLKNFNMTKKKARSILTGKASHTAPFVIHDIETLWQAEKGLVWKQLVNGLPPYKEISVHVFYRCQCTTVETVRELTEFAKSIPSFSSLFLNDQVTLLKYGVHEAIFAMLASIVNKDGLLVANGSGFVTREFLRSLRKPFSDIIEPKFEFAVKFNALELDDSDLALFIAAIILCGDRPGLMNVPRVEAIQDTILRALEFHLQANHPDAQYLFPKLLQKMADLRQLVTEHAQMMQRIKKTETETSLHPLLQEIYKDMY
T1 sequence (P19793 1-462 partner): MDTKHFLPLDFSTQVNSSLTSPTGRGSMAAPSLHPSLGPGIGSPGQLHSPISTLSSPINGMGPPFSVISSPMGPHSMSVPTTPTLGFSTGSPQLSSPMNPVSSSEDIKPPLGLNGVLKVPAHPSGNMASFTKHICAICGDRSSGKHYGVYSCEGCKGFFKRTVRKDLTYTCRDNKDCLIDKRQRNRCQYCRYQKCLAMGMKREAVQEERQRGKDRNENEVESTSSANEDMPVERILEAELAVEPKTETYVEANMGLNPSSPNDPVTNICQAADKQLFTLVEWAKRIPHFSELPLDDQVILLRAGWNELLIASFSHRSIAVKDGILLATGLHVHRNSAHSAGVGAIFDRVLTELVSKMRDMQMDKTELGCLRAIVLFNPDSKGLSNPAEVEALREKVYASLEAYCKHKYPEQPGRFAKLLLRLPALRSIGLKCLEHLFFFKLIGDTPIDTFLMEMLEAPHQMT
Excerpt: Using a reporter gene protocol, the screening model for screening a nuclear receptor agonist in a living cell is designed on a basis of the principal that an activated nuclear receptor can activate transcription of its downstream gene. A reporter gene plasmid is constructed, in which the DNA binding sequence for the nuclear receptor (NRE) is inserted upstream of the luciferase gene, so that the expression of the luciferase gene is placed under the control of the nuclear receptor. Then, the reporter gene plasmid and the nuclear receptor are simultaneously transferred into a cell, and the nuclear receptor is activated when the nuclear receptor agonist is present in the cell culture medium. Then the activated receptor is able to induce the expression of the luciferase gene, while the amount of the luciferase can be determined through its luminous substrate. In this way, the intensity of activation by the compound on the nuclear receptor could be known by observing the luminescence intensity.
The specific operation is described as follows:
The experiment reagents: the compounds to be tested (20 mM, in DMSO, stored at −80° C.).
The hepatocarcinoma cell HepG2 (from ATCC, American Type Culture Collection) was cultured in DMEM medium supplemented with 10% heat-inactivated fetal bovine serum (FBS, Invitogen, Grand Island, N.Y., USA) in a T-75 culture bottle (Greiner, Germany) in a incubator at 37° C., the relative humidity of 100%, and 5% CO2. When the cell culture in the culture bottle reached 80-90% confluency, it was digested with 0.25% Trypsin (with EDTA) for 3 min and inoculated into a 96-well cell culture plate at an inoculating density of 2000 cells/100 μl/well.
In the next day, when the cells in the 96-well culture plate grew up to 50-80% confluency, cell transfection was performed. The cell co-transfection system comprised the FuGene6 transfection agent (Roche Molecular Biochemicals, Indianapolis, Ind., U.S.A.) and 60 ng DNA (long of hRXR, 10 ng of pCMV βGal, 10 ng of the nuclear receptor expression plasmid RXR/PPARδ, 30 ng of GFP fluorescence reporter gene plasmid, respectively).
The cell culture medium was discarded immediately at 24 hours post-transfection and replaced by 200 μl of a fresh DMEM medium containing the medicament to be tested (with 10% FBS treated by activated carbon).
24 h after treatment with the medicament, the cells were lysed with a lysis solution (Cell Culture Lysis buffer, Promega) and centrifuged, and the supernatant was collected. The supernatant was treated with a fluorescence detection kit (Promega) and counted by a fluorescence meter (Ascent Fluoroskan FL reader, Thermo Labsystems, Finland), and the relative intensity of the luciferase was determined. For assaying the β-galactosidase activity used in the experiment as the inner reference (the inner reference calibrating for the transfection efficiency), 50 μl of the supernatant was transferred into a fresh microplate and treated with the Promega kit and read at a wavelength of 405 nm from a microplate reader (Bio-tech Instruments Inc., Winooski, Vt., USA) (Sauerberg, P.; Olsen, G. S.; Jeppesen, L.; Mogensen, J. P. et al., J. Med. Chem., 2007, 50, 1495-1503).
The median effective concentration (EC50) of a sample is a concentration at which the sample has 50% pharmacological effect. This value is one of the important parameters for evaluating pharmacological effects of a compound. In the present screening process, the EC50 of a sample was calculated according to the activation of the receptor by the sample at six different concentrations.

[3] = tested on: high fat fodder obese C57BL/6J mice; test: High fat fodder obese mice: levels of blood lipid and blood glucose; assay type: in vivo; set-up: HDL / GLU / TC / TG: unit not given here; settings: for GLU / HDL / TG / TC: mean ± s, n 5
Excerpt: 3 week-old male C57BL/6J mice were chosen as experiment animals, 15 of which were randomly selected to feed with a standard fodder, and the remains were allowed to feed with a high fat fodder, with each of the mice being marked by ear-cutting. The body weights and fodder intake of the mice were weighed every week. […] […], the effects of the medicaments on the levels of blood lipid and blood glucose, body weight, and fodder intake in the animals were observed, while a glucose tolerance test was performed to investigate the effects of the medicaments on the glucose tolerance in the animals.

[4] = 2 weeks administration, 3.3 mg/kg
[5] = 2 weeks administration, 10 mg/kg
[6] = 4 weeks administration, 3.3 mg/kg
[7] = 4 weeks administration, 10 mg/kg

Cc1cc(SCC(=O)O)c(C)cc1OC(c1ccccc1)c1nn(-c2ccc(C(F)(F)F)cc2)c(=O)n1C (stereo not drawn) [Compound A-11, 2-(2,5-dimethyl-4-(1-(3-(4-methyl-5-oxo-1-(4-trifluoromethyl-phenyl)-4,5-dihydrogen-1H-1,2,4-triazolyl))-benzyloxy)-phenylthio)-acetic acid]
Food intake ([1]; column 1, 3.3 mg/kg): 6.0 g | Food intake ([1]; column 1, 10 mg/kg): 7.2 g | Food intake ([1]; column 2, 3.3 mg/kg): 5.0 g | Food intake ([1]; column 2, 10 mg/kg): 5.2 g | Food intake ([1]; column 3, 3.3 mg/kg): 5.8 g | Food intake ([1]; column 3, 10 mg/kg): 6.0 g | Food intake ([1]; column 4, 3.3 mg/kg): 6.2 g | Food intake ([1]; column 4, 10 mg/kg): 6.4 g | Food intake ([1]; column 5, 3.3 mg/kg): 6.9 g | Food intake ([1]; column 5, 10 mg/kg): 6.9 g | effect on the food intake of the animals ([1]; in words): no significant effect | body weight of the animals ([1]; in words, Table 4 and FIG. 1): significantly decrease | glucose tolerance in the obese animals [2]: significantly improve the glucose tolerance | EC50 (PPARδ): < 1 nM | GLU [3, 4]: 8.85 ± 2.13 | HDL [3, 4]: 3.25 ± 1.29 | TG [3, 4]: 0.21 ± 0.08 | GLU [3, 5]: 6.51 ± 1.61 | HDL [3, 5]: 2.39 ± 1.36 | TC [3, 5]: 4.51 ± 0.37 | TG [3, 5]: 0.16 ± 0.06 | GLU [3, 6]: 7.61 ± 0.5 | HDL [3, 6]: 3.83 ± 0.1 | TC [3, 6]: 5.84 ± 0.21 | TG [3, 6]: 0.12 ± 0.05 | GLU [3, 7]: 6.93 ± 0.3 | HDL [3, 7]: 2.84 ± 1.09 | TC [3, 7]: 5.28 ± 0.48 | TG [3, 7]: 0.15 ± 0.05 | levels of TG and GLU in the sera from the model animals ([3]; in words): significantly decrease
